The values below come from patent publication US20260272883A1, “SOLID STATE FORMS OF PIRTOBRUTINIB AND PROCESS FOR THE PREPARATION OF INTERMEDIATE THEREOF” (DR. REDDY'S LABORATORIES LIMITED, priority 2023, published 2026).

The nature of data set [1]: Stability of crystalline form P1 under 80% RH (open condition) and illumination (300-400 nm). In kind it is physicochemical.
Data set [2] is described as follows: Stability of crystalline form P1 at 25° C./60% RH and 40° C./75% RH for 3 months (closed conditions). It counts as physicochemical.

Regarding `COc1ccc(F)cc1C(=O)NCc1ccc(-c2nn([C@@H](C)C(F)(F)F)c(N)c2C(N)=O)cc1` [Crystalline form P1 of Pirtobrutinib, (S)-5-amino-3-(4-((5-fluoro-2-methoxybenzamido)methyl)phenyl)-1-(1,1,1-trifluoropropan-2-yl)-1H-pyrazole-4-carboxamide], the Purity in data set [1] (0 Day) is on record as 98.9%; in data set [1] (Exposure at 80% RH for 1 day (Open Condition)), 98.9%; in data set [1] (Illumination (300-400 nm) for 24 hours), 98.9%; in data set [2] (0 Day) it was 98.9%; in data set [2] (25° C./60% RH (Closed Condition) (3 months)), 98.7%; in data set [2] (40° C./75% RH (Closed Condition) (3 months)), 98.9%. In addition, the Stability entry in data set [1] (high humidity and illumination conditions) is on record as “stable”; in data set [2] (3 months at accelerated conditions) it was “stable”; in data set [2] (40° C./75% RH for 3 months under closed conditions), “stable”. Further, the “Physical and chemical stability” value is “physically and chemically stable” in data set [1] (kept at 80% RH in open condition); “physically and chemically stable” in data set [1] (kept under illumination (300-400 nm) for 24 hours); “physically and chemically stable” in data set [2] (25° C./60% RH for 3 months under closed conditions).
